ChEMBL document CHEMBL5113398, “Design and synthesis of new quinoline derivatives as selective C-RAF kinase inhibitors with potent anticancer activity” (Eur J Med Chem, 2022)

Experiments:
HT-29 [1] = assay: Anticancer activity against human HT-29 cells assessed as total cell growth inhibition incubated for 48 hrs by SRB assay; type: functional
Hs-578T [2] = assay: Anticancer activity against human Hs-578T cells assessed as total cell growth inhibition incubated for 48 hrs by SRB assay; type: functional
UO-31 = assay: Anticancer activity against human UO-31 cells assessed as total cell growth inhibition incubated for 48 hrs by SRB assay; type: functional
A498 [3] = assay: Anticancer activity against human A498 cells assessed as total cell growth inhibition incubated for 48 hrs by SRB assay; type: functional
HT-29 [4] = assay: Anticancer activity against human HT-29 cells assessed as cell growth inhibition incubated for 48 hrs by SRB assay; type: functional
Hs-578T [5] = assay: Anticancer activity against human Hs-578T cells assessed as cell growth inhibition incubated for 48 hrs by SRB assay; type: functional
RPMI-8226 = assay: Anticancer activity against human RPMI-8226 cells assessed as total cell growth inhibition incubated for 48 hrs by SRB assay; type: functional
SF-295 = assay: Anticancer activity against human SF-295 cells assessed as cell growth inhibition incubated for 48 hrs by SRB assay; type: functional
SK-MEL-2 [6] = assay: Anticancer activity against human SK-MEL-2 cells assessed as cell growth inhibition incubated for 48 hrs by SRB assay; type: functional
DU-145 = assay: Anticancer activity against human DU-145 cells assessed as total cell growth inhibition incubated for 48 hrs by SRB assay; type: functional
SN12C = assay: Anticancer activity against human SN12C cells assessed as total cell growth inhibition incubated for 48 hrs by SRB assay; type: functional
[7] = biological target: Epidermal growth factor receptor (Homo sapiens) (UniProt P00533); assay: Inhibition of EGFR (unknown origin) at 1 uM in presence of ATP by hotspot kinase assay
Chain of Epidermal growth factor receptor (Homo sapiens) (P00533 whole entry): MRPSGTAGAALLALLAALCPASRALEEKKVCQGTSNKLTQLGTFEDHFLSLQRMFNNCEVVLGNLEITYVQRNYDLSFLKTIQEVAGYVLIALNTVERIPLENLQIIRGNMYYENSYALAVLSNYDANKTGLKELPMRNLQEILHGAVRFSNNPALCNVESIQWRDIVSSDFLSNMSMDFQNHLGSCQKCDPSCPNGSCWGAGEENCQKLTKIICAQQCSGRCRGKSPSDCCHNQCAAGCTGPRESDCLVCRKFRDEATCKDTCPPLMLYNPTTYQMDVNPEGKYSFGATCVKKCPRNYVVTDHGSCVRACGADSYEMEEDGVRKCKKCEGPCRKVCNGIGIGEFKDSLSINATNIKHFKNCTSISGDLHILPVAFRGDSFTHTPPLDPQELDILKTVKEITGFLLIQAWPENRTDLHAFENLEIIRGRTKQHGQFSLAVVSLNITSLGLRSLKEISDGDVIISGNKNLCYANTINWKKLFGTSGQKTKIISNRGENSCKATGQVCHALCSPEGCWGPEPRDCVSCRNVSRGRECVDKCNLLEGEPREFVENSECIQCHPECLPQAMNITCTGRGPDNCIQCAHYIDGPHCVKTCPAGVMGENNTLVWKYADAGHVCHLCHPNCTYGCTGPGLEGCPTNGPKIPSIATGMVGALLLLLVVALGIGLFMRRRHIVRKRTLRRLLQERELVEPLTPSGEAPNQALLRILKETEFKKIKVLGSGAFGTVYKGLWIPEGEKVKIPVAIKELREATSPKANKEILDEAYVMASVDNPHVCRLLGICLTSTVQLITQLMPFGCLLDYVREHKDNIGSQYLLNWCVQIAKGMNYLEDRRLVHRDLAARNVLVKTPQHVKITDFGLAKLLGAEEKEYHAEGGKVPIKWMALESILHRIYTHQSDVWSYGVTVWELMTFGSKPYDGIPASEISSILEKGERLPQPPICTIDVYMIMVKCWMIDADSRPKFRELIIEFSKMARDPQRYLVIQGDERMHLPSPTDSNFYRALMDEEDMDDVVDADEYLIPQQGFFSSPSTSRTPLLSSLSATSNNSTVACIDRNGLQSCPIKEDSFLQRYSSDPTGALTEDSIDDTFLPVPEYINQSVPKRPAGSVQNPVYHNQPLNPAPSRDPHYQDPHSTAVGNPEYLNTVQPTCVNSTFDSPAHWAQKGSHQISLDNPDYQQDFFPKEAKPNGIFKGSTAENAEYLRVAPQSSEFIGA

HOP-92 = assay: Anticancer activity against human HOP-92 cells assessed as cell growth inhibition incubated for 48 hrs by SRB assay; type: functional
HL-60 = assay: Anticancer activity against human HL-60 cells assessed as cell growth inhibition incubated for 48 hrs by SRB assay; type: functional
[8] = Cytotoxicity against human WI-38 cells assessed as cell growth inhibition incubated for 48 hrs by SRB assay; type: toxicity, cell-based
[9] = biological target: Vascular endothelial growth factor receptor 2 (Homo sapiens) (UniProt P35968); assay: Inhibition of KDR (unknown origin) at 1 uM in presence of ATP by hotspot kinase assay
Chain of Vascular endothelial growth factor receptor 2 (Homo sapiens) (P35968 whole entry): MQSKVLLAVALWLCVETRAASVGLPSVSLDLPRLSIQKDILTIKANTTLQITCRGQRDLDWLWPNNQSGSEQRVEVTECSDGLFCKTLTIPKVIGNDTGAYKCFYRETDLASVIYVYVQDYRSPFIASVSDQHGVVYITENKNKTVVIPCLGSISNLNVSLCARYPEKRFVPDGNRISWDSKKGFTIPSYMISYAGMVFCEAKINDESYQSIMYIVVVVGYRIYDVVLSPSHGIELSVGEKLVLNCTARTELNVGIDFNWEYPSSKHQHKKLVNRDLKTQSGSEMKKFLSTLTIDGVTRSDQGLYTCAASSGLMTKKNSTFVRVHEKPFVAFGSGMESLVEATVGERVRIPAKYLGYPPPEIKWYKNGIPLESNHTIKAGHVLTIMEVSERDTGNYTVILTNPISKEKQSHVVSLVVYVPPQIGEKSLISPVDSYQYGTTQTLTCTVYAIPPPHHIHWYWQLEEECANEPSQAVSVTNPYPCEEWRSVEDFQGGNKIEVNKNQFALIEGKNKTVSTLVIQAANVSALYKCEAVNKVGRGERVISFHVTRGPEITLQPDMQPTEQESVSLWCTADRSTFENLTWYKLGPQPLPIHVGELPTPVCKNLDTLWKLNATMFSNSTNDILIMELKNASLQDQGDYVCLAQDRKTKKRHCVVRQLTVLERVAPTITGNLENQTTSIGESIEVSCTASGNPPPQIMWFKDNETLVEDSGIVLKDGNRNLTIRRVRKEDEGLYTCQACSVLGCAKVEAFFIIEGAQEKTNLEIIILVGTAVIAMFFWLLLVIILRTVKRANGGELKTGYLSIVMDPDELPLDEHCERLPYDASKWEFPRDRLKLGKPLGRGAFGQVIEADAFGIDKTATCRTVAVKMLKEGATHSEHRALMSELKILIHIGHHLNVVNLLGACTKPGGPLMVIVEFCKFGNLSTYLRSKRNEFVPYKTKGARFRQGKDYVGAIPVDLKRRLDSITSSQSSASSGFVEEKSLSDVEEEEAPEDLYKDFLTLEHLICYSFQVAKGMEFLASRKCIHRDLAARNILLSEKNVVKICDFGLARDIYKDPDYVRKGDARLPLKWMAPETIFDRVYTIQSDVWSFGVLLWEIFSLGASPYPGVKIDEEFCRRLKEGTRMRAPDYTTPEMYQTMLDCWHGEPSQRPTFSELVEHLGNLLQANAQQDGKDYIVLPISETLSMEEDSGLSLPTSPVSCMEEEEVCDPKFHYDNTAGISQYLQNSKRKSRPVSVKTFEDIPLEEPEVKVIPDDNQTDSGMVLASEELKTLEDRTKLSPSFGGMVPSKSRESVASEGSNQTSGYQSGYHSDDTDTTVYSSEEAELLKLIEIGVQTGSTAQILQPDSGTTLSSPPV

A498 [10] = assay: Anticancer activity against human A498 cells assessed as cell growth inhibition incubated for 48 hrs by SRB assay; type: functional
OVCAR-4 [11] = assay: Anticancer activity against human OVCAR-4 cells assessed as total cell growth inhibition incubated for 48 hrs by SRB assay; type: functional
MDA-MB-435 = assay: Anticancer activity against human MDA-MB-435 cells assessed as total cell growth inhibition incubated for 48 hrs by SRB assay; type: functional
T47D = assay: Anticancer activity against human T47D cells assessed as total cell growth inhibition incubated for 48 hrs by SRB assay; type: functional
[12] = system: Serine/threonine-protein kinase B-raf (Homo sapiens), P15056 [V600E]; assay: Inhibition of B-RAF V600E mutant (unknown origin) at 1 uM in presence of ATP by hotspot kinase assay
Chain of Serine/threonine-protein kinase B-raf (Homo sapiens), P15056 [V600E] (P15056 whole entry V600E): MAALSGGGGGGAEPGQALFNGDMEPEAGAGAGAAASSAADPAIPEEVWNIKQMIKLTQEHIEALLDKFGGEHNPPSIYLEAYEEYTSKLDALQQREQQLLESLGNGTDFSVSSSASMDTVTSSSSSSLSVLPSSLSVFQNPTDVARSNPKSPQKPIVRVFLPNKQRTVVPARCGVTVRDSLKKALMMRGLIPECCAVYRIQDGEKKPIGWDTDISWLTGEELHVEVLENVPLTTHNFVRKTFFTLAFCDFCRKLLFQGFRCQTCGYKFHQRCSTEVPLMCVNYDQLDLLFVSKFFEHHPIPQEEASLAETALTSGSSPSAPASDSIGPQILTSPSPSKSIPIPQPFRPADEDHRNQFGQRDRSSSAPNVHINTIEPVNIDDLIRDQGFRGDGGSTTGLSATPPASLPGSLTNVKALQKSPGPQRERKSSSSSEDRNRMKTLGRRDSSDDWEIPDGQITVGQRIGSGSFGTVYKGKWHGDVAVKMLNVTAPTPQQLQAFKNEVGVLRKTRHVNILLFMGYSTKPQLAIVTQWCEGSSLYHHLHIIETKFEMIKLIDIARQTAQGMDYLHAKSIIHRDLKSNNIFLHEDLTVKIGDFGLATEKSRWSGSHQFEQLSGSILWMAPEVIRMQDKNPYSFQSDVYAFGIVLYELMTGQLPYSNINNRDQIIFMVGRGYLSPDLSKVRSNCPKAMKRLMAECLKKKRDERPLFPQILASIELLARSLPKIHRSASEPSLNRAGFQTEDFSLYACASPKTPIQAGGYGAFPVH

[13] = biological target: Dual specificity mitogen-activated protein kinase kinase 1 (Homo sapiens) (UniProt Q02750); assay: Inhibition of MEK1 (unknown origin) at 1 uM in presence of ATP by hotspot kinase assay
MCF7 = assay: Anticancer activity against human MCF7 cells assessed as total cell growth inhibition incubated for 48 hrs by SRB assay; type: functional
HOP-62 = assay: Anticancer activity against human HOP-62 cells assessed as total cell growth inhibition incubated for 48 hrs by SRB assay; type: functional
MOLT-4 = assay: Anticancer activity against human MOLT-4 cells assessed as cell growth inhibition incubated for 48 hrs by SRB assay; type: functional
Homo sapiens = organism: Homo sapiens; assay: Inhibition of ABL (unknown origin) at 1 uM in presence of ATP by hotspot kinase assay
IGROV-1 = assay: Anticancer activity against human IGROV-1 cells assessed as cell growth inhibition incubated for 48 hrs by SRB assay; type: functional
M14 = assay: Anticancer activity against human M14 cells assessed as total cell growth inhibition incubated for 48 hrs by SRB assay; type: functional
CAKI-1 = assay: Anticancer activity against human CAKI-1 cells assessed as cell growth inhibition incubated for 48 hrs by SRB assay; type: functional
SK-MEL-28 = assay: Anticancer activity against human SK-MEL-28 cells assessed as cell growth inhibition incubated for 48 hrs by SRB assay; type: functional
A549 = assay: Anticancer activity against human A549 cells assessed as cell growth inhibition incubated for 48 hrs by SRB assay; type: functional
NCI-H23 [14] = assay: Anticancer activity against human NCI-H23 cells assessed as total cell growth inhibition incubated for 48 hrs by SRB assay; type: functional
SK-MEL-2 [15] = assay: Anticancer activity against human SK-MEL-2 cells assessed as total cell growth inhibition incubated for 48 hrs by SRB assay; type: functional
NCI-H460 = assay: Anticancer activity against human NCI-H460 cells assessed as total cell growth inhibition incubated for 48 hrs by SRB assay; type: functional
NCI-H522 = assay: Anticancer activity against human NCI-H522 cells assessed as cell growth inhibition incubated for 48 hrs by SRB assay; type: functional
SNB-19 = assay: Anticancer activity against human SNB-19 cells assessed as cell growth inhibition incubated for 48 hrs by SRB assay; type: functional
SNB-75 = assay: Anticancer activity against human SNB-75 cells assessed as total cell growth inhibition incubated for 48 hrs by SRB assay; type: functional
NCI-H23 [16] = assay: Anticancer activity against human NCI-H23 cells assessed as cell growth inhibition incubated for 48 hrs by SRB assay; type: functional
NCI/ADR-RES = assay: Anticancer activity against human NCI/ADR-RES cells assessed as total cell growth inhibition incubated for 48 hrs by SRB assay; type: functional
SK-MEL-5 = assay: Anticancer activity against human SK-MEL-5 cells assessed as cell growth inhibition incubated for 48 hrs by SRB assay; type: functional
MDA-MB-468 = assay: Anticancer activity against human MDA-MB-468 cells assessed as total cell growth inhibition incubated for 48 hrs by SRB assay; type: functional
OVCAR-4 [17] = assay: Anticancer activity against human OVCAR-4 cells assessed as cell growth inhibition incubated for 48 hrs by SRB assay; type: functional
OVCAR-3 = assay: Anticancer activity against human OVCAR-3 cells assessed as cell growth inhibition incubated for 48 hrs by SRB assay; type: functional
SF-539 = assay: Anticancer activity against human SF-539 cells assessed as total cell growth inhibition incubated for 48 hrs by SRB assay; type: functional
[18] = biological target: Dual specificity mitogen-activated protein kinase kinase 2 (Homo sapiens) (UniProt P36507); assay: Inhibition of MEK2 (unknown origin) at 1 uM in presence of ATP by hotspot kinase assay
Chain of Dual specificity mitogen-activated protein kinase kinase 2 (Homo sapiens) (P36507 whole entry): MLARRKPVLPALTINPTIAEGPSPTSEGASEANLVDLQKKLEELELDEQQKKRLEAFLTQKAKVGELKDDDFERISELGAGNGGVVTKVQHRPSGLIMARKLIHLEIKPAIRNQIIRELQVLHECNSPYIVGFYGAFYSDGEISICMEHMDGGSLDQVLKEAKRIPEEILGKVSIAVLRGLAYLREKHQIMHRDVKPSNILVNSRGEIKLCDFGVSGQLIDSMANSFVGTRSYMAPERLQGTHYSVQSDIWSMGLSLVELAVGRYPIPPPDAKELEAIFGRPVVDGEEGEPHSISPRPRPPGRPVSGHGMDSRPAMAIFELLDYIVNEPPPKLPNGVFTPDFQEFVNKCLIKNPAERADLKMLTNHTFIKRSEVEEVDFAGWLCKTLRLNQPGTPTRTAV

[19] = biological target: Platelet-derived growth factor receptor alpha (Homo sapiens) (UniProt P16234); assay: Inhibition of PDGFRalpha (unknown origin) at 1 uM in presence of ATP by hotspot kinase assay
Chain of Platelet-derived growth factor receptor alpha (Homo sapiens) (P16234 whole entry): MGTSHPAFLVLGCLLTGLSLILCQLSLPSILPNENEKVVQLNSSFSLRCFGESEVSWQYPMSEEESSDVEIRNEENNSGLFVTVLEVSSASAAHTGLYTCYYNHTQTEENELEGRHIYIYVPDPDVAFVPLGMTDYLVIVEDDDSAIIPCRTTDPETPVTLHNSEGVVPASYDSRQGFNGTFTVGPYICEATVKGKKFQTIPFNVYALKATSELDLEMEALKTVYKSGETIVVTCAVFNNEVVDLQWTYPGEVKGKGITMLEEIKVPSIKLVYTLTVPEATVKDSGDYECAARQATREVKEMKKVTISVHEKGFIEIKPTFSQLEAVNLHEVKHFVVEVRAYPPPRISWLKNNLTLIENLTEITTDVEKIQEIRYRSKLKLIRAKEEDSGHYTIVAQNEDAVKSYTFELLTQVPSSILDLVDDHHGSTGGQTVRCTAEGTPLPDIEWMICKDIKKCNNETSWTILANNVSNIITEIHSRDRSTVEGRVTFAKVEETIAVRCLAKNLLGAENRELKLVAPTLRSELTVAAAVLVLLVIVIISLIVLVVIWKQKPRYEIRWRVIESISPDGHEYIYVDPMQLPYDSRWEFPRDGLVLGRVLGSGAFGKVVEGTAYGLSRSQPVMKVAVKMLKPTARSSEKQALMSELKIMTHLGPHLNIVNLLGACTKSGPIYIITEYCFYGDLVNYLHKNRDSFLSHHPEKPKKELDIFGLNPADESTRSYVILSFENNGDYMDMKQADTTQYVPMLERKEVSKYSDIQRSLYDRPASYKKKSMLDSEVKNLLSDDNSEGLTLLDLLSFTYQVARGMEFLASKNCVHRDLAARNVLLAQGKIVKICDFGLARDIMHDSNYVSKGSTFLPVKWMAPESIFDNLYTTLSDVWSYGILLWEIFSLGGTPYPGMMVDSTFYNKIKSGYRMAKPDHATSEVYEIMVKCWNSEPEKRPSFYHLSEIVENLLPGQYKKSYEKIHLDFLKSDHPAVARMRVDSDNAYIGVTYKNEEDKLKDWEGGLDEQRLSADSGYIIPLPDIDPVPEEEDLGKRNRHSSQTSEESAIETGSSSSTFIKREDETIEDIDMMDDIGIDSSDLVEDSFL

RXF 393 = assay: Anticancer activity against human RXF 393 cells assessed as total cell growth inhibition incubated for 48 hrs by SRB assay; type: functional

Structure (SMILES): COc1cc2cc(Oc3ccc(NC(=O)Nc4ccc(F)c(C(F)(F)F)c4)cc3)c(C)nc2cc1OCCN1CCOCC1
- TGI (HT-29 [1]): 21.8 µM
- TGI (Hs-578T [2]): 8.9 µM
- TGI (UO-31): 10.6 µM
- TGI (A498 [3]): 10.2 µM
- GI50 (HT-29 [4]): 3.07 µM
- GI50 (Hs-578T [5]): 2.12 µM
- TGI (RPMI-8226): 4.25 µM
- GI50 (SF-295): 1.35 µM
- GI50 (SK-MEL-2 [6]): 2.38 µM
- TGI (DU-145): 15.2 µM
- TGI (SN12C): 15.5 µM
- inhibition [7]: 1.43%
- GI50 (HOP-92): 1.31 µM
- GI50 (HL-60): 2.38 µM
- GI50 at 48 h [8]: > 20 µM
- inhibition [9]: -2.9%
- GI50 (A498 [10]): 2.8 µM
- TGI (OVCAR-4 [11]): 5.23 µM
- TGI (MDA-MB-435): 3.9 µM
- TGI (T47D): 32.1 µM
- inhibition [12]: 24.8%
- inhibition [13]: 13.1%
- TGI (MCF7): 3.48 µM
- TGI (HOP-62): 20.5 µM
- GI50 (MOLT-4): 1.86 µM
- inhibition (Homo sapiens): -0.53%
- GI50 (IGROV-1): 2.69 µM
- TGI (M14): 3.31 µM
- GI50 (CAKI-1): 2.06 µM
- GI50 (SK-MEL-28): 1.62 µM
- GI50 (A549): 2.57 µM
- TGI (NCI-H23 [14]): 5.88 µM
- TGI (SK-MEL-2 [15]): 7.58 µM
- TGI (NCI-H460): 5.34 µM
- GI50 (NCI-H522): 2.04 µM
- GI50 (SNB-19): 3.96 µM
- TGI (SNB-75): 7.45 µM
- GI50 (NCI-H23 [16]): 1.43 µM
- TGI (NCI/ADR-RES): 12.1 µM
- GI50 (SK-MEL-5): 1.14 µM
- TGI (MDA-MB-468): 10.4 µM
- GI50 (OVCAR-4 [17]): 0.71 µM
- GI50 (OVCAR-3): 2.94 µM
- TGI (SF-539): 3.44 µM
- inhibition [18]: 10.4%
- inhibition [19]: 18.3%
- TGI (RXF 393): 3.94 µM

Structure (SMILES): COc1cc2cc(Oc3ccc(NC(=O)Nc4cc(C(F)(F)F)cc(C(F)(F)F)c4)cc3)c(C)nc2cc1OCCN1CCOCC1
- TGI (HT-29 [1]): 7.14 µM
- TGI (Hs-578T [2]): 7 µM
- TGI (UO-31): 4.06 µM
- TGI (A498 [3]): 6.69 µM
- GI50 (HT-29 [4]): 1.75 µM
- GI50 (Hs-578T [5]): 1.56 µM
- TGI (RPMI-8226): 2.12 µM
- GI50 (SF-295): 1.14 µM
- GI50 (SK-MEL-2 [6]): 1.74 µM
- TGI (DU-145): 7.05 µM
- TGI (SN12C): 5.48 µM
- inhibition [7]: 3.62%
- GI50 (HOP-92): 0.9 µM
- GI50 (HL-60): 1.62 µM
- GI50 at 48 h [8]: > 20 µM
- inhibition [9]: 4.5%
- GI50 (A498 [10]): 1.8 µM
- TGI (OVCAR-4 [11]): 6.95 µM
- TGI (MDA-MB-435): 6.72 µM
- TGI (T47D): 10.2 µM
- inhibition [12]: 34.6%
- inhibition [13]: 25.5%
- TGI (MCF7): 3.91 µM
- TGI (HOP-62): 9.16 µM
- GI50 (MOLT-4): 1.32 µM
- inhibition (Homo sapiens): -2.3%
- GI50 (IGROV-1): 1.54 µM
- TGI (M14): 5.88 µM
- GI50 (CAKI-1): 1.47 µM
- GI50 (SK-MEL-28): 1.8 µM
- GI50 (A549): 1.72 µM
- TGI (NCI-H23 [14]): 6.69 µM
- TGI (SK-MEL-2 [15]): 6.91 µM
- TGI (NCI-H460): 5.52 µM
- GI50 (NCI-H522): 1.63 µM
- GI50 (SNB-19): 1.88 µM
- TGI (SNB-75): 4.48 µM
- GI50 (NCI-H23 [16]): 1.66 µM
- TGI (NCI/ADR-RES): 7.21 µM
- GI50 (SK-MEL-5): 0.89 µM
- TGI (MDA-MB-468): 3.76 µM
- GI50 (OVCAR-4 [17]): 1.88 µM
- GI50 (OVCAR-3): 1.43 µM
- TGI (SF-539): 5.25 µM
- inhibition [18]: 16.4%
- inhibition [19]: 26.9%
- TGI (RXF 393): 2.99 µM
